From patent US20220163532A1, “NUCLEAR-DERIVED EXOSOMES AND METHODS OF USE THEREOF” (Board of Regents, The University of Texas System, priority 2019, published 2022)

Test system: ovarian cancer cells
Experiment: Nuclear proteins in exosomes from drug-treated ovarian cancer cells (Western blot)
Assay type: cell-based, human
Conditions: topotecan 10 nM or olaparib 20 μM
Procedure: Isolation of exosomes. The isolation method for exosomes that was used in this study followed the standard methods of the International Society of Extracellular Vesicles (Witwer et al., 2013). Cell lines described above were grown in the corresponding medium described above until 60 to 70% confluence was achieved. Cells were then washed twice with phosphate-buffered saline (PBS) and grown in corresponding medium containing 1% exosome-free FBS (EXO-FBS-250A-1, System Biosciences) plus 0.1% gentamicin for 48 hours. For exosome isolation, the harvested medium underwent serial centrifugation. First, the medium was spun down at 500g for 10 min to pellet any floating cells. Next, the supernatant was collected and spun down at 2000g for 30 min to pellet any residual cell debris. The resulting supernatant was then filtered through a 0.22-μm filter (SCGPUO5RE and SLGP033RS, Millipore-Sigma) to remove any remaining large vesicles. After filtration, the medium was spun down at 40,000 rpm for 2 hours at 4° C. in an ultracentrifuge (Optima XE, Beckman Coulter) with a Ti 45 fixed-angle rotor (339160, Beckman Coulter). […] Exosome concentration and quantity were determined using NTA with a NanoSight NS300 instrument (Malvern Panalytical).
Western blotting. […] Protein concentration was determined using the Micro BCA Protein Assay Kit (23235, Thermo Fisher Scientific) according to the manufacturer's protocol. […]

CC[C@@]1(O)C(=O)OCc2c1cc1n(c2=O)Cc2cc3c(CN(C)C)c(O)ccc3nc2-1 [topotecan]
population of exosomes containing nuclear proteins: increased
